Measurements taken from the supplement of paper PMC10307832.

Assays:
Experiment in all cases: relative viability (nuclei count vs DMSO), 5 days (fraction); higher = more cells survive
[1] = compound: CC1(C)CNc2cc(NC(=O)c3cccnc3NCc3ccncc3)ccc21 [Motesanib] + C[C@]1(O)C[C@@H](c2nc(-c3ccc4ccc(-c5ccccc5)nc4c3)c3c(N)nccn32)C1 [Linsitinib] (partner 1 µM)
Outline: (§1)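 Relative viability was taken as the ratio of nuclei in treated wells to nuclei in vehicle wells. Lung cancer cell lines in 1536-well plates received compounds by pin tool one day after seeding, either one drug alone or a fixed anchor-drug dose plus five library-drug doses (not always all listed) in √10 steps. Nuclei were counted on 4× images after 5 days of treatment, and values are medians of duplicate plates.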

[2] = compound: CC1(C)CNc2cc(NC(=O)c3cccnc3NCc3ccncc3)ccc21 [Motesanib] + N=C(N)NC(=N)NCCc1ccccc1 [Phenformin] (partner 250 µM)
Outline: as §1

[3] = compound: CC1(C)CNc2cc(NC(=O)c3cccnc3NCc3ccncc3)ccc21 [Motesanib] + O=C(CCCCCCC(=O)Nc1ccccc1)NO [Vorinostat] (partner 1 µM)
Outline: as §1

[4] = compound: C[C@@]1(C(=O)Nc2ccc(F)nc2)CCCN1c1nc(Nc2cc(C3CC3)n[nH]2)c2cccn2n1 + Cc1nc(NC(=O)N2CCC[C@H]2C(N)=O)sc1-c1ccnc(C(C)(C)C(F)(F)F)c1 [Alpelisib] (partner 2 µM)
Outline: as §1

Question: What does the source list for UMC-11?
Answer: relative viability ([1]; first compound 0.01 µM): 0.984; relative viability ([1]; first compound 0.03162 µM): 0.985; relative viability ([1]; first compound 0.1 µM): 1.04; relative viability ([1]; first compound 0.3162 µM): 1; relative viability ([1]; first compound 1 µM): 1.13; relative viability ([2]; first compound 0.01 µM): 0.29; relative viability ([2]; first compound 0.03162 µM): 0.33; relative viability ([2]; first compound 0.1 µM): 0.324; relative viability ([2]; first compound 0.3162 µM): 0.33; relative viability ([2]; first compound 1 µM): 0.345; relative viability ([3]; first compound 0.01 µM): 0.44; relative viability ([3]; first compound 0.03162 µM): 0.438; relative viability ([3]; first compound 0.1 µM): 0.345; relative viability ([3]; first compound 0.3162 µM): 0.426; relative viability ([3]; first compound 1 µM): 0.476; relative viability ([4]; first compound 0.04 µM): 0.955; relative viability ([4]; first compound 0.1265 µM): 1.1; relative viability ([4]; first compound 0.4 µM): 1.01; relative viability ([4]; first compound 1.265 µM): 1.1
